# Data published in patent publication US20120101083A1, “S1P1 AGONISTS COMPRISING A BICYCLIC N-CONTAINING RING” (GLAXO GROUP LIMITED, priority 2009, published 2012).
# pEC50: −log10 of the molar value. Where a name gives a salt, the structure may show the parent alone.
# Assays:
# [1] = target: T1, S1P1 receptor (S1P1 expressing RH7777 membranes) (Homo sapiens, UniProt P21453); assay: S1P1 GTPγS assay; assay type: biochemical; settings: tested in one of the above S1P1 assays (two GTPγS formats)
# T1 construct: expressed in transfected cells; host or cells: RH7777 cells (membranes)
# Summary of the method: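 Membranes from RH7777 cells expressing human S1P1 (1.5 μg/well) precoupled 30 min on ice to WGA SPA beads in 20 mM HEPES pH 7.4, 10 mM MgCl2, 100 mM NaCl, with 10 μM GDP and 90 μg/ml saponin. [35S]-GTPγS 0.5 nM final added with compound; SPA signal read immediately.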
# [2] = target: T2, S1P1 (PathHunter CHO-K1 EDG1 β-Arrestin cell line) (Homo sapiens, UniProt P21453); assay: S1P-1 β-Arrestin recruitment assay; assay type: cell-based; settings: CHO-K1 EDG1 β-Arrestin cells, chemi-luminescence
# T2 construct: host or cells: PathHunter CHO-K1 EDG1 β-Arrestin cell line
# Protocol: S1P-1 β-Arrestin Recruitment Assay
# β-Arrestin recruitment assays were carried out using the PathHunter CHO-K1 EDG1
# β-Arrestin cell line (DiscoveRx Corporation) in a chemi-luminescence detection assay. This cell line stably expresses β-Arrestin 2 and S1P1 fused to complementing portions of β-galactosidase (‘EA’ and ‘pro-link’, respectively) which associate upon Arrestin recruitment to form functional β-galactosidase enzyme.
# Cells were grown to 80% confluency in Growth Medium (F12 nutrient HAMS supplemented with 10% heat-inactivated USA FBS, 1% L-glutamax, 800 μg/ml Geneticin and 300 μg/ml Hygromycin). Cells were harvested from the flask using Enzyme Free Cell Dissociation Buffer (Gibco) and washed from flasks with Optimem solution (Gibco). Cells were then centrifuged at 1000 rpm for 2-3 min and resuspended in Assay Buffer (Prepared from Sigma kit H1387 supplemented with 20 ml/L HEPES, 4.7 ml/L NaHCO3, 0.1% pluronic acid F-68 solution, 0.1% BSA and adjusted to pH 7.4 using sodium hydroxide at 1×10^6 cells/ml. Cells were dispensed into assay plates containing compounds (100n1/well of a solution of test compound in 100% DMSO) at 1×10^4 cells/well and incubated at 37° C./5% CO2 for 90 min followed by 15 min at room temperature. 5 μl detection mix (1 part Galacton Star, 5 parts Emerald II, 19 parts Assay Buffer; DiscoveRx) were added per well and the plates incubated at room temperature for 60 min. Luminescence was quantified using a Viewlux plate reader.
# T2 sequence (P21453 whole entry): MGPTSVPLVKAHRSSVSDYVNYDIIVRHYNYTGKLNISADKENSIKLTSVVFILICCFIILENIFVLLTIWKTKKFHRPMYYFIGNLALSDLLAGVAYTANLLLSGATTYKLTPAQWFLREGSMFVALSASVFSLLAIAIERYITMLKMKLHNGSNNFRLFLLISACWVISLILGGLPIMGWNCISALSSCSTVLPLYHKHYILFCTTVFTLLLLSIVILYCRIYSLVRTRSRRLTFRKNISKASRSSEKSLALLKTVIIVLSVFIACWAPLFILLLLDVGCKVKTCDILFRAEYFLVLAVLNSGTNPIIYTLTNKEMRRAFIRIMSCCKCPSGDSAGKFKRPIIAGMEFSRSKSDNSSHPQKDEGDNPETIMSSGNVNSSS
# T2 sequence (P32121 whole entry partner): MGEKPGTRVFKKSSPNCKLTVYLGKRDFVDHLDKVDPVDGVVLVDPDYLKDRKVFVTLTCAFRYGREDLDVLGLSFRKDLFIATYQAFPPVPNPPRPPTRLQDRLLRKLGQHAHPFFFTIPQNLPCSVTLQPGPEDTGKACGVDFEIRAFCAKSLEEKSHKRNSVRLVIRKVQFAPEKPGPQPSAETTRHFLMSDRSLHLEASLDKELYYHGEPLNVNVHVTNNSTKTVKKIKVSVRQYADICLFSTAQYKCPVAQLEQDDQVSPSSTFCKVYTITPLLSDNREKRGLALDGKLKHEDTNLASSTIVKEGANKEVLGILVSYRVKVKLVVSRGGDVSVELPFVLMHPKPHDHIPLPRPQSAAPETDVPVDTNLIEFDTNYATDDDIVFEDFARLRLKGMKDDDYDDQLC
# T1 sequence (P21453 whole entry): as the sequence (P21453 whole entry) above
SMILES,pEC50 [1],pEC50 [2]
"Cc1c(-c2noc(-c3ccc(OC(C)C)c(C#N)c3)n2)ccc2c1CCN(CCC(N)=O)C2 [Example 1, 3-[6-(5-{3-Cyano-4-[(1-methylethyl)oxy]phenyl}-1,2,4-oxadiazol-3-yl)-5-methyl-3,4-dihydro-2(1H)-isoquinolinyl]propanamide]",≥ 7.00,≥ 8.00
"Cc1c(-c2noc(-c3ccc(OC(C)C)c(C#N)c3)n2)ccc2c1CCN(CCC(=O)N(C)C)C2 [Example 2, 3-[6-(5-{3-Cyano-4-[(1-methylethyl)oxy]phenyl}-1,2,4-oxadiazol-3-yl)-5-methyl-3,4-dihydro-2(1H)-isoquinolinyl]-N,N-dimethylpropanamide]",≥ 7.00,≥ 7.00
"Cc1c(-c2noc(-c3ccc(OC(C)C)c(C#N)c3)n2)ccc2c1CCN(CC(N)=O)C2 [Example 3, 2-[6-(5-{3-Cyano-4-[(1-methylethyl)oxy]phenyl}-1,2,4-oxadiazol-3-yl)-5-methyl-3,4-dihydro-2(1H)-isoquinolinyl]acetamide]",≥ 7.00,≥ 8.00
"Cc1c(-c2noc(-c3ccc(OC(C)C)c(C#N)c3)n2)ccc2c1CCN(CCCC(N)=O)C2 [Example 4, 4-[6-(5-{3-Cyano-4-[(1-methylethyl)oxy]phenyl}-1,2,4-oxadiazol-3-yl)-5-methyl-3,4-dihydro-2(1H)-isoquinolinyl]butanamide]",≥ 7.00,≥ 8.00
"CNC(=O)CCCN1CCc2c(ccc(-c3noc(-c4ccc(OC(C)C)c(C#N)c4)n3)c2C)C1 [Example 5, 4-[6-(5-{3-Cyano-4-[(1-methylethyl)oxy]phenyl}-1,2,4-oxadiazol-3-yl)-5-methyl-3,4-dihydro-2(1H)-isoquinolinyl]-N-methylbutanamide]",≥ 7.00,≥ 8.00
"Cc1c(-c2noc(-c3ccc(OC(C)C)c(C#N)c3)n2)ccc2c1CCN(C(=O)CN[C@@H](C)CO)C2 [Example 130, 5-[3-(2-{N-[(1S)-2-hydroxy-1-methylethyl]glycyl}-5-methyl-1,2,3,4-tetrahydro-6-isoquinolinyl)-1,2,4-oxadiazol-5-yl]-2-[(1-methylethyl)oxy]benzonitrile]",–,≥ 8.00
"Cc1c(-c2noc(-c3ccc(OC(C)C)c(C#N)c3)n2)ccc2c1CCN(C(=O)CNCCO)C2 [Example 131, formic acid-5-(3-{2-[N-(2-hydroxyethyl)glycyl]-5-methyl-1,2,3,4-tetrahydro-6-isoquinolinyl}-1,2,4-oxadiazol-5-yl)-2-[(1-methylethyl)oxy]benzonitrile (1:1)]",–,≥ 8.00
"Cc1c(-c2noc(-c3ccc(OC(C)C)c(Cl)c3)n2)ccc2c1CCN(CC(=O)NCCO)C2 [Example 136, 2-[6-(5-{3-chloro-4-[(1-methylethyl)oxy]phenyl}-1,2,4-oxadiazol-3-yl)-5-methyl-3,4-dihydro-2(1H)-isoquinolinyl]-N-(2-hydroxyethyl)acetamide hydrochloride]",–,≥ 8.00
"Cc1c(-c2noc(-c3cnc(OC(C)C)c(Cl)c3)n2)ccc2c1CCN(C(CO)CO)C2 [Example 144, 2-[6-(5-{5-chloro-6-[(1-methylethyl)oxy]-3-pyridinyl}-1,2,4-oxadiazol-3-yl)-5-methyl-3,4-dihydro-2(1H)-isoquinolinyl]-1,3-propanediol]",–,≥ 7.00
"CC(C)Oc1ccc(-c2nc(-c3ccc4c(c3)CCN(CC(=O)NCCCO)CC4)no2)cc1C#N [Example 157, 2-[7-(5-{3-cyano-4-[(1-methylethyl)oxy]phenyl}-1,2,4-oxadiazol-3-yl)-1,2,4,5-tetrahydro-3H-3-benzazepin-3-yl]-N-(3-hydroxypropyl)acetamide]",–,≥ 8.00
"CC(C)Oc1ccc(-c2nc(-c3ccc4c(c3)CCN(C(C)C(=O)NCCO)CC4)no2)cc1C#N (stereo not shown) [Example 161, 2-[7-(5-{3-cyano-4-[(1-methylethyl)oxy]phenyl}-1,2,4-oxadiazol-3-yl)-1,2,4,5-tetrahydro-3H-3-benzazepin-3-yl]-N-(2-hydroxyethyl)propanamide hydrochloride]",–,≥ 7.00
"CC(C)Oc1ccc(-c2nc(-c3ccc4c(c3)CCN(C(C)C(=O)N[C@H](C)CO)CC4)no2)cc1C#N (stereo partly drawn) [Example 162, 2-[7-(5-{3-cyano-4-[(1-methylethyl)oxy]phenyl}-1,2,4-oxadiazol-3-yl)-1,2,4,5-tetrahydro-3H-3-benzazepin-3-yl]-N-(1R)-2-hydroxy-1-methylethyl]propanamide hydrochloride]",–,≥ 7.00
"CC(C)Oc1ccc(-c2nc(-c3ccc4c(c3)CCN(C[C@@H](O)C(=O)NCCO)CC4)no2)cc1C#N [Example 164, (2R)-3-[7-(5-{3-cyano-4-[(1-methylethyl)oxy]phenyl}-1,2,4-oxadiazol-3-yl)-1,2,4,5-tetrahydro-3H-3-benzazepin-3-yl]-2-hydroxy-N-(2-hydroxyethyl)propanamide hydrochloride]",–,≥ 8.00

# Second part, the compound after the results:
pEC50 [1],pEC50 [2],SMILES
–,≥ 8.00,"CC(C)Oc1ccc(-c2nc(-c3ccc4c(c3)CCN(C[C@@H](O)C(=O)N[C@H](C)CO)CC4)no2)cc1C#N [Example 165, (2R)-3-[7-(5-{3-cyano-4-[(1-methylethyl)oxy]phenyl}-1,2,4-oxadiazol-3-yl)-1,2,4,5-tetrahydro-3H-3-benzazepin-3-yl]-2-hydroxy-N-(1R)-2-hydroxy-1-methylethyl]propanamide hydrochloride]"
–,≥ 8.00,"Cc1c(-c2noc(-c3cnc(OC(C)C)c(C#N)c3)n2)ccc2c1CCN(CC(=O)N[C@@H](C)CO)C2 [Example 170, 2-[6-(5-{5-cyano-6-[(1-methylethyl)oxy]-3-pyridinyl}-1,2,4-oxadiazol-3-yl)-5-methyl-3,4-dihydro-2(1H)-isoquinolinyl]-N-[(1S)-2-hydroxy-1-methylethyl]acetamide hydrochloride]"
–,≥ 8.00,"CC(C)Oc1ccc(-c2nc(-c3cccc4c3CCN(C[C@@H](O)CO)C4)no2)cc1C#N [Example 178, 5-(3-{2-[(2R)-2,3-dihydroxypropyl]-1,2,3,4-tetrahydro-5-isoquinolinyl}-1,2,4-oxadiazol-5-yl)-2-[(1-methylethyl)oxy]benzonitrile hydrochloride]"
–,≥ 8.00,"CC(C)Oc1ccc(-c2nc(-c3cccc4c3CCN(C(CO)CO)C4)no2)cc1C#N [Example 180, 5-(3-{2-[2-hydroxy-1-(hydroxymethyl)ethyl]-1,2,3,4-tetrahydro-5-isoquinolinyl}-1,2,4-oxadiazol-5-yl)-2-[(1-methylethyl)oxy]benzonitrile hydrochloride]"
–,≥ 7.00,"Cc1c(-c2noc(-c3ccc(OC(C)C)c(Cl)c3)n2)ccc2c1CCN(C(=O)CNC(CO)CO)C2 [Example 190, 2-({2-[6-(5-{3-chloro-4-[(1-methylethyl)oxy]phenyl}-1,2,4-oxadiazol-3-yl)-5-methyl-3,4-dihydro-2(1H)-isoquinolinyl]-2-oxoethyl}amino)-1,3-propanediol hydrochloride]"
–,≥ 8.00,"N#Cc1cc(-c2nc(-c3ccc4c(c3)CCN(C(=O)CN)CC4)no2)ccc1OCC(F)(F)F [Example 191, 5-[3-(3-glycyl-2,3,4,5-tetrahydro-1H-3-benzazepin-7-yl)-1,2,4-oxadiazol-5-yl]-2-[(2,2,2-trifluoroethyl)oxy]benzonitrile hydrochloride]"
–,≥ 8.00,"Cc1c(-c2noc(-c3ccc(OC(C)C)c(Cl)c3)n2)ccc2c1CCN(CC(=O)NC[C@H](O)CO)C2 [Example 192, 2-[6-(5-{3-chloro-4-[(1-methylethyl)oxy]phenyl}-1,2,4-oxadiazol-3-yl)-5-methyl-3,4-dihydro-2(1H)-isoquinolinyl]-N-[(2S)-2,3-dihydroxypropyl]acetamide hydrochloride]"
–,≥ 8.00,"Cc1c(-c2noc(-c3ccc(OC(C)C)c(Cl)c3)n2)ccc2c1CCN(CC(=O)NC(CO)CO)C2 [Example 193, 2-[6-(5-{3-chloro-4-[(1-methylethyl)oxy]phenyl}-1,2,4-oxadiazol-3-yl)-5-methyl-3,4-dihydro-2(1H)-isoquinolinyl]-N-[2-hydroxy-1-(hydroxymethyl)ethyl]acetamide hydrochloride]"
–,≥ 8.00,"CC(C)Oc1ccc(-c2nnc(-c3ccc4c(c3)CCN(C(=O)CNCCO)CC4)s2)cc1C#N [Example 200, 5-(5-{3-[N-(2-hydroxyethyl)glycyl]-2,3,4,5-tetrahydro-1H-3-benzazepin-7-yl}-1,3,4-thiadiazol-2-yl)-2-[(1-methylethyl)oxy]benzonitrile]"
–,≥ 7.00,"Cc1c(-c2nnc(-c3ccc(OC(C)C)c(Cl)c3)s2)ccc2c1CCN(C(CO)CO)C2 [Example 203, 2-[6-(5-{3-chloro-4-[(1-methylethyl)oxy]phenyl}-1,3,4-thiadiazol-2-yl)-5-methyl-3,4-dihydro-2(1H)-isoquinolinyl]-1,3-propanediol hydrochloride]"
